Results published in ChEMBL document CHEMBL3399917, “Design, synthesis and antiproliferative activity evaluation of m-(4-morpholinyl-1,3,5-triazin-2-yl)benzamides in vitro” (Bioorg Med Chem Lett, 2015).
Calls of active or inactive are those of the source. The rule behind the calls is not given here.

Key:
MCF7 [1] = test: Antiproliferative activity against human MCF7 cells assessed as inhibitory ratio at 10 uM after 72 hrs by MTT assay; format: functional; conditions: MCF7, 72 h
[2] = Antiproliferative activity against human HCT116 cells assessed as inhibitory ratio at 10 uM after 72 hrs by MTT assay; format: functional; conditions: HCT-116, 72 h
MCF7 [3] = test: Antiproliferative activity against human MCF7 cells after 72 hrs by MTT assay; format: functional, cell-based; conditions: MCF7, 72 h
[4] = Antiproliferative activity against human U87MG cells after 72 hrs by MTT assay; format: functional, cell-based, U-87MG ATCC; conditions: U-87 MG
[5] = Antiproliferative activity against human HCT116 cells after 72 hrs by MTT assay; format: functional, cell-based; conditions: HCT-116, 72 h
HeLa = test: Antiproliferative activity against human HeLa cells after 72 hrs by MTT assay; format: functional, cell-based
A549 = test: Antiproliferative activity against human A549 cells after 72 hrs by MTT assay; format: functional, cell-based; conditions: A549, 72 h
HCT-116 [6] = test: Inhibition of PI3K/Akt in human HCT116 cells assessed as Akt phosphorylation at 10 uM after 1 hr by Western blotting analysis; format: cell-based
HCT-116 [7] = test: Induction of apoptosis in human HCT116 cells assessed as cell shrinking and vacuolization, chromatin condensation and nuclear fragmentation after 24 hrs by Hoechst staining based phase contrast microscopy; format: functional

| IC50 (MCF7 [3]) | IC50 (HeLa) | IC50 (A549) | SMILES | inhibition at 10 µM (MCF7 [1]) | inhibition at 10 µM [2] | IC50 [4] | IC50 [5] | inhibition (HCT-116 [6]) | Activity (HCT-116 [7]) |
| --- | --- | --- | --- | --- | --- | --- | --- | --- | --- |
|  |  |  | NC(=O)c1cc(-c2nc(N3CCOCC3)nc(N3CCOCC3)n2)ccc1OCc1cccc(F)c1 | 26.2% | 35.9% |  |  |  |  |
|  |  |  | NC(=O)c1cc(-c2nc(N3CCOCC3)nc(N3CCOCC3)n2)ccc1O | 32.7% | 31.7% |  |  |  |  |
|  |  |  | COC(=O)c1cc(-c2nc(N3CCOCC3)nc(N3CCOCC3)n2)cc(C(F)(F)F)c1 | 37.2% | 40% |  |  |  |  |
|  |  |  | O=C(O)c1cc(-c2nc(N3CCOCC3)nc(N3CCOCC3)n2)cc(C(F)(F)F)c1 | 34.4% | 44.9% |  |  |  |  |
|  |  |  | NC(=O)c1cc(OCc2ccccc2)cc(-c2nc(N3CCOCC3)nc(N3CCOCC3)n2)c1 | 32.5% | 31.6% |  |  |  |  |
|  |  |  | NC(=O)c1cc(-c2nc(NCC(=O)N3CCOCC3)nc(N3CCOCC3)n2)cc(C(F)(F)F)c1 | 30.3% | 29.2% |  |  |  |  |
|  |  |  | CN(CCCC(=O)N1CCOCC1)c1nc(-c2cc(C(N)=O)cc(C(F)(F)F)c2)nc(N2CCOCC2)n1 | 38.5% | 44.8% |  |  |  |  |
|  |  |  | COc1cc(C(N)=O)cc(-c2nc(N3CCOCC3)nc(N3CCOCC3)n2)c1 | 42.2% | 41.2% |  |  |  |  |
|  |  |  | CN(CCCC(=O)N1CCN(S(C)(=O)=O)CC1)c1nc(-c2cc(C(N)=O)cc(C(F)(F)F)c2)nc(N2CCOCC2)n1 | 37.7% | 40.8% |  |  |  |  |
|  |  |  | NC(=O)c1cc(-c2nc(N3CCOCC3)nc(N3CCOCC3)n2)ccc1Cl | 34.4% | 35.6% |  |  |  |  |
|  |  |  | NC(=O)c1cccc(-c2nc(N3CCOCC3)nc(N3CCOCC3)n2)c1 | 38% | 51.1% |  |  |  |  |
| 4970 nM | 8070 nM | 8230 nM | NC(=O)c1cc(-c2nc(N3CCOCC3)nc(N3CCOCC3)n2)cc(C(F)(F)F)c1 | 59.3% | 71.4% | 11200 nM | 2430 nM |  |  |
|  |  |  | CS(=O)(=O)NC1CCN(c2nc(-c3cc(C(N)=O)cc(C(F)(F)F)c3)nc(N3CCOCC3)n2)CC1 | 49.3% | 19% |  |  |  |  |
| 2170 nM | 8170 nM | 3720 nM | NC(=O)c1cc(O)cc(-c2nc(N3CCOCC3)nc(N3CCOCC3)n2)c1 | 65.8% | 77.9% | 3210 nM | 1190 nM |  |  |
| 5230 nM | > 20000 nM | 11300 nM | NC(=O)c1cc(-c2nc(N3CCOCC3)nc(N3CCOCC3)n2)ccc1OCc1ccc(F)cc1 | 54.9% | 66.9% | 3980 nM | 2870 nM |  |  |
|  |  |  | CS(=O)(=O)N1CCN(C(=O)CNc2nc(-c3cc(C(N)=O)cc(C(F)(F)F)c3)nc(N3CCOCC3)n2)CC1 | 19.3% | 29.8% |  |  |  |  |
|  |  |  | CS(=O)(=O)N1CCC(Nc2nc(-c3cc(C(N)=O)cc(C(F)(F)F)c3)nc(N3CCOCC3)n2)CC1 | 30.9% | 42.9% |  |  |  |  |
| 2130 nM | 7120 nM | 2360 nM | CN(c1nc(-c2cc(C(N)=O)cc(C(F)(F)F)c2)nc(N2CCOCC2)n1)C1CCN(S(C)(=O)=O)CC1 | 61.7% | 72% | 4630 nM | 1940 nM |  |  |
|  |  |  | CN1CCN(c2nc(-c3cc(C(N)=O)cc(C(F)(F)F)c3)nc(N3CCOCC3)n2)CC1 | 40.2% | 36.2% |  |  |  |  |
| 1000 nM | 4340 nM | 2070 nM | Nc1cc(C(F)(F)F)c(-c2cc(N3CCOCC3)nc(N3CCOCC3)n2)cn1 [BUPARLISIB] | 84% | 89.5% | 1640 nM | 480 nM | Active |  |
|  |  |  | CS(=O)(=O)N1CCN(c2nc(-c3cc(C(N)=O)cc(C(F)(F)F)c3)nc(N3CCOCC3)n2)CC1 | 47.4% | 19.4% |  |  |  |  |
| 1250 nM | 4830 nM | 2370 nM | NC(=O)c1cc(OC(F)(F)F)cc(-c2nc(N3CCOCC3)nc(N3CCOCC3)n2)c1 | 70.7% | 89.3% | 1530 nM | 900 nM | Active | Dose-dependent effect |
|  |  |  | NC(=O)c1cc(-c2nc(N3CCOCC3)nc(N3CCOCC3)n2)ccc1OCc1ccccc1 | 31.2% | 29.9% |  |  |  |  |
|  |  |  | COc1ccc(-c2nc(N3CCOCC3)nc(N3CCOCC3)n2)cc1C(N)=O | 36.2% | 40.4% |  |  |  |  |
